{"source": "patent US20240239755A1", "about": "“SUBSTITUTED PYRIDAZINONES, SALTS OR N-OXIDES THEREOF AND THEIR USE AS HERBICIDALLY ACTIVE SUBSTANCES” (Bayer Aktiengesellschaft, priority 2021, published 2024)", "assay_type_in_all_cases": "in vivo", "key": {"Lolium rigidum (LOLRI) [1]": {"test_system": "Lolium rigidum (LOLRI)", "assay": "Herbicidal pre-emergence action, 1280 g/ha (Table A5)", "settings": "visual grading after ca. 3 weeks vs untreated controls", "method_in_brief": "(§1)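 Pre-emergence soil-surface spray, sandy loam, mono-/dicot double sowings per pot; WP or EC formulations, aqueous, +0.5% additive, 600 L/ha water. Greenhouse, optimum conditions. Visual % damage vs untreated at ca. 3 wk (100% = dead).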"}, "[2]": {"test_system": "Matricaria inodora (MATIN)", "assay": "Herbicidal pre-emergence action, 1280 g/ha (Table A6)", "settings": "visual grading after ca. 3 weeks vs untreated controls", "method_in_brief": "as §1"}, "Poa annua (POAAN) [3]": {"test_system": "Poa annua (POAAN)", "assay": "Herbicidal pre-emergence action, 1280 g/ha (Table A7)", "settings": "visual grading after ca. 3 weeks vs untreated controls", "method_in_brief": "as §1"}, "Stellaria media (STEME) [4]": {"test_system": "Stellaria media (STEME)", "assay": "Herbicidal pre-emergence action, 1280 g/ha (Table A9)", "settings": "visual grading after ca. 3 weeks vs untreated controls", "method_in_brief": "as §1"}, "[5]": {"test_system": "Amaranthus retroflexus (AMARE)", "assay": "Herbicidal pre-emergence action, 1280 g/ha (Table A11)", "settings": "visual grading after ca. 3 weeks vs untreated controls", "method_in_brief": "as §1"}, "[6]": {"test_system": "Abutilon theophrasti (ABUTH)", "assay": "Herbicidal post-emergence action, 1280 g/ha (Table B1)", "settings": "visual assessment after ca. 3 weeks vs untreated controls", "method_in_brief": "(§2)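 Read-out is visual herbicidal effect in percent against untreated controls (100% = dead plants, 0% = like controls), scored about 3 weeks after treatment. Plants at the single-leaf stage were sprayed on green parts with aqueous WP or EC preparations containing 0.5% additive, 600 L water/ha.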"}, "[7]": {"test_system": "Echinochloa crus-galli (ECHCG)", "assay": "Herbicidal post-emergence action, 1280 g/ha (Table B3)", "settings": "visual assessment after ca. 3 weeks vs untreated controls", "method_in_brief": "as §2"}, "Kochia scoparia (KCHSC) [8]": {"test_system": "Kochia scoparia (KCHSC)", "assay": "Herbicidal post-emergence action, 1280 g/ha (Table B4)", "settings": "visual assessment after ca. 3 weeks vs untreated controls", "method_in_brief": "as §2"}, "Lolium rigidum (LOLRI) [9]": {"test_system": "Lolium rigidum (LOLRI)", "assay": "Herbicidal post-emergence action, 1280 g/ha (Table B5)", "settings": "visual assessment after ca. 3 weeks vs untreated controls", "method_in_brief": "as §2"}, "[10]": {"test_system": "Matricaria inodora (MATIN)", "assay": "Herbicidal post-emergence action, 1280 g/ha (Table B6)", "settings": "visual assessment after ca. 3 weeks vs untreated controls", "method_in_brief": "as §2"}, "Poa annua (POAAN) [11]": {"test_system": "Poa annua (POAAN)", "assay": "Herbicidal post-emergence action, 1280 g/ha (Table B7)", "settings": "visual assessment after ca. 3 weeks vs untreated controls", "source_text": "Seeds of mono- and dicotyledonous weed plants were sown in plastic pots (double sowings with one species of mono- and one species of dicotyledonous weed plants per pot), in sandy loam, covered with soil and grown under controlled growth conditions. 2 to 3 weeks after sowing, the test plants were sprayed in the single-leaf stage. The compounds according to the invention, formulated in the form of wettable powders (WP) or as emulsifiable concentrates (EC), were sprayed onto the green plant parts as an aqueous suspension or as an emulsion, with the addition of 0.5% of an additive, at an application rate of 600 litres of water per hectare (converted). The test plants were placed in the greenhouse for ca. 3 weeks under optimum growth conditions, and then the effect of the preparations was assessed visually in comparison with untreated controls (herbicidal effect in percent (%): 100% effect=plants have died, 0% effect=as control plants). Tables B1 to B11 below, show the effects of selected compounds of the general formula (I) according to Table 1 on various harmful plants using an application rate corresponding to 1280 g/ha obtained by the experimental procedure mentioned above."}, "Stellaria media (STEME) [12]": {"test_system": "Stellaria media (STEME)", "assay": "Herbicidal post-emergence action, 1280 g/ha (Table B9)", "settings": "visual assessment after ca. 3 weeks vs untreated controls", "method_in_brief": "as §2"}, "Veronica persica (VERPE) [13]": {"test_system": "Veronica persica (VERPE)", "assay": "Herbicidal post-emergence action, 1280 g/ha, VERPE", "settings": "visual grading vs untreated controls", "method_in_brief": "(§3)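 Pot-grown weeds in sandy loam sprayed post-emergence at the single-leaf stage, 2–3 weeks after sowing, with WP or EC formulations plus 0.5% additive in 600 L water/ha at 1280 g/ha. After ca. 3 weeks in the greenhouse, damage scored visually as % effect versus untreated controls (100% = plants dead).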"}, "[14]": {"test_system": "Amaranthus retroflexus (AMARE)", "assay": "Herbicidal post-emergence action, 1280 g/ha, AMARE", "settings": "visual grading vs untreated controls", "method_in_brief": "as §3"}, "[15]": {"test_system": "Abutilon theophrasti (ABUTH)", "assay": "Herbicidal post-emergence action, 320 g/ha, ABUTH", "settings": "visual grading after ca. 3 weeks", "method_in_brief": "(§4)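 Post-emergence spray at single-leaf stage; WP/EC in aqueous suspension/emulsion, 0.5% additive, 600 L water/ha. Greenhouse ~3 wk, visual rating vs untreated: 0% = as control, 100% = plants dead.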"}, "Kochia scoparia (KCHSC) [16]": {"test_system": "Kochia scoparia (KCHSC)", "assay": "Herbicidal post-emergence action, 320 g/ha, KCHSC", "settings": "visual grading after ca. 3 weeks", "method_in_brief": "as §4"}, "[17]": {"test_system": "Matricaria inodora (MATIN)", "assay": "Herbicidal post-emergence action, 320 g/ha, MATIN", "settings": "visual grading after ca. 3 weeks", "method_in_brief": "as §4"}, "Stellaria media (STEME) [18]": {"test_system": "Stellaria media (STEME)", "assay": "Herbicidal post-emergence action, 320 g/ha, STEME", "settings": "visual grading after ca. 3 weeks", "method_in_brief": "as §4"}, "Veronica persica (VERPE) [19]": {"test_system": "Veronica persica (VERPE)", "assay": "Herbicidal post-emergence action, 320 g/ha, VERPE", "settings": "visual grading after ca. 3 weeks", "method_in_brief": "as §4"}, "[20]": {"test_system": "Amaranthus retroflexus (AMARE)", "assay": "Herbicidal post-emergence action, 320 g/ha, AMARE", "settings": "visual grading after ca. 3 weeks", "method_in_brief": "as §4"}, "[21]": {"test_system": "Digitaria sanguinalis (DIGSA)", "assay": "Herbicidal pre-emergence action, 1280 g/ha (Table A3)", "settings": "visual grading after ca. 3 weeks vs untreated controls", "source_text": "Seeds of mono- and dicotyledonous weed plants were sown in plastic pots (double sowings with one species of mono- and one species of dicotyledonous weed plants per pot), in sandy loam, and covered with soil. The compounds according to the invention, formulated in the form of wettable powders (WP) or as emulsifiable concentrates (EC), were applied to the surface of the covering soil as an aqueous suspension or as an emulsion, with the addition of 0.5% of an additive, at an application rate of 600 litres of water per hectare (converted). Following treatment, the pots were placed in a greenhouse and kept under optimum growth conditions for the test plants. The visual grading of the damage to the test plants was carried out after ca. 3 weeks in comparison to untreated controls (herbicidal effect in percent (%): 100% effect=plants have died, 0% effect=as control plants). Tables A1 to A11 below, show the effects of selected compounds of the general formula (I) according to Table 1 on various harmful plants and an application rate corresponding to 1280 g/ha obtained by the experimental procedure mentioned above."}, "Kochia scoparia (KCHSC) [22]": {"test_system": "Kochia scoparia (KCHSC)", "assay": "Herbicidal pre-emergence action, 1280 g/ha (Table A4)", "settings": "visual grading after ca. 3 weeks vs untreated controls", "method_in_brief": "as §1"}}}
{"compound": "CCOC(=O)Oc1c(C)nn(C)c(=O)c1Oc1ccccc1Cl", "note": "[Example I-010]", "values": [{"measurement": "herbicidal effect LOLRI", "setting": "Lolium rigidum (LOLRI) [1]", "result": 100, "unit": "%"}, {"measurement": "herbicidal effect MATIN", "setting": "[2]", "result": 100, "unit": "%"}, {"measurement": "herbicidal effect POAAN", "setting": "Poa annua (POAAN) [3]", "result": 90, "unit": "%"}, {"measurement": "herbicidal effect STEME", "setting": "Stellaria media (STEME) [4]", "result": 90, "unit": "%"}, {"measurement": "herbicidal effect AMARE", "setting": "[5]", "result": 90, "unit": "%"}, {"measurement": "herbicidal effect ABUTH", "setting": "[6]", "result": 100, "unit": "%"}, {"measurement": "herbicidal effect ECHCG", "setting": "[7]", "result": 90, "unit": "%"}, {"measurement": "herbicidal effect KCHSC", "setting": "Kochia scoparia (KCHSC) [8]", "result": 100, "unit": "%"}, {"measurement": "herbicidal effect LOLRI", "setting": "Lolium rigidum (LOLRI) [9]", "result": 100, "unit": "%"}, {"measurement": "herbicidal effect MATIN", "setting": "[10]", "result": 100, "unit": "%"}, {"measurement": "herbicidal effect POAAN", "setting": "Poa annua (POAAN) [11]", "result": 100, "unit": "%"}, {"measurement": "herbicidal effect STEME", "setting": "Stellaria media (STEME) [12]", "result": 100, "unit": "%"}, {"measurement": "herbicidal effect VERPE", "setting": "Veronica persica (VERPE) [13]", "result": 90, "unit": "%"}, {"measurement": "herbicidal effect AMARE", "setting": "[14]", "result": 100, "unit": "%"}, {"measurement": "herbicidal effect ABUTH", "setting": "[15]", "result": 90, "unit": "%"}, {"measurement": "herbicidal effect KCHSC", "setting": "Kochia scoparia (KCHSC) [16]", "result": 100, "unit": "%"}, {"measurement": "herbicidal effect MATIN", "setting": "[17]", "result": 100, "unit": "%"}, {"measurement": "herbicidal effect STEME", "setting": "Stellaria media (STEME) [18]", "result": 100, "unit": "%"}, {"measurement": "herbicidal effect VERPE", "setting": "Veronica persica (VERPE) [19]", "result": 90, "unit": "%"}, {"measurement": "herbicidal effect AMARE", "setting": "[20]", "result": 100, "unit": "%"}]}
{"compound": "Cc1nn(C)c(=O)c(Oc2cc(Cl)c(Cl)c(Cl)c2)c1O", "note": "[Example I-077]", "values": [{"measurement": "herbicidal effect DIGSA", "setting": "[21]", "result": 100, "unit": "%"}, {"measurement": "herbicidal effect KCHSC", "setting": "Kochia scoparia (KCHSC) [22]", "result": 90, "unit": "%"}, {"measurement": "herbicidal effect MATIN", "setting": "[2]", "result": 100, "unit": "%"}, {"measurement": "herbicidal effect POAAN", "setting": "Poa annua (POAAN) [3]", "result": 100, "unit": "%"}, {"measurement": "herbicidal effect AMARE", "setting": "[5]", "result": 100, "unit": "%"}, {"measurement": "herbicidal effect ECHCG", "setting": "[7]", "result": 90, "unit": "%"}, {"measurement": "herbicidal effect STEME", "setting": "Stellaria media (STEME) [12]", "result": 100, "unit": "%"}, {"measurement": "herbicidal effect STEME", "setting": "Stellaria media (STEME) [18]", "result": 90, "unit": "%"}]}
